Data on 6 molecules can be found in ChEMBL document CHEMBL5331074, “Design and synthesis of new adamantyl derivatives as promising antiproliferative agents” (Eur J Med Chem, 2023).

The test system of data set [1] is Panel NCI-60 (60 carcinoma cell lines). The experiment in a line: Cytotoxicity against human Panel NCI-60 (60 carcinoma cell lines) assessed as mean growth inhibition. Format: functional.
The next data set relates to HCT-15. Kind of data set: Cytotoxicity against human HCT-15 cells assessed as cell growth inhibition. Format: functional, cell-based.
Another data set deals with SF-268. The experiment in a line: Cytotoxicity against human SF-268 cells assessed as cell growth inhibition. It is filed as functional, cell-based.
The subject of another data set is BT-549. Kind of data set: Cytotoxicity against human BT-549 cells assessed as cell growth inhibition. It is filed as functional, cell-based.
Another data set relates to NCI/ADR-RES. The experiment in a line: Cytotoxicity against human NCI/ADR-RES cells assessed as cell growth inhibition. Format: functional, cell-based.
Another data set has as its system Malme-3M. The experiment in a line: Cytotoxicity against human Malme-3M cells assessed as cell growth inhibition. It is filed as functional, cell-based.
In the next data set the test system is SK-MEL-5. Kind of data set: Cytotoxicity against human SK-MEL-5 cells assessed as cell growth inhibition. It is filed as functional, cell-based.
The test system of another data set is NCI-H522. Kind of data set: Cytotoxicity against human NCI-H522 cells assessed as cell growth inhibition. It is filed as functional, cell-based.
In the next data set the test system is Hs-578T. Kind of data set: Cytotoxicity against human Hs-578T cells assessed as cell growth inhibition. It is filed as functional, cell-based.
The next data set has as its system MOLT-4. The experiment in a line: Cytotoxicity against human MOLT-4 cells assessed as cell growth inhibition. Format: functional, cell-based.
A further data set deals with COLO 205. Kind of data set: Cytotoxicity against human COLO 205 cells assessed as cell growth inhibition. Format: functional, cell-based.
Another data set deals with NCI-H226. Kind of data set: Cytotoxicity against human NCI-H226 cells assessed as cell growth inhibition. Format: functional, cell-based.
The next data set relates to MCF7. The experiment in a line: Cytotoxicity against human MCF7 cells assessed as cell growth inhibition. It is filed as functional, cell-based.
The test system of another data set is U-251. The experiment in a line: Cytotoxicity against human U-251 cells assessed as cell growth inhibition. Format: functional, cell-based.
The test system of a further data set is OVCAR-3. Kind of data set: Cytotoxicity against human OVCAR-3 cells assessed as cell growth inhibition. It is filed as functional, cell-based.
Another data set deals with 786-0. Kind of data set: Cytotoxicity against human 786-0 cells assessed as cell growth inhibition. Format: functional, cell-based.
The subject of the next data set is SK-OV-3. The experiment in a line: Cytotoxicity against human SK-OV-3 cells assessed as cell growth inhibition. Format: functional, cell-based.
For another data set, the system named is HCT-116. The experiment in a line: Cytotoxicity against human HCT-116 cells assessed as cell growth inhibition. Format: functional, cell-based.
For another data set, the system named is HOP-62. The experiment in a line: Cytotoxicity against human HOP-62 cells assessed as cell growth inhibition. Format: functional, cell-based.
A further data set deals with OVCAR-8. The experiment in a line: Cytotoxicity against human OVCAR-8 cells assessed as cell growth inhibition. It is filed as functional, cell-based.
The subject of a further data set is A498. The experiment in a line: Cytotoxicity against human A498 cells assessed as cell growth inhibition. It is filed as functional, cell-based.
A further data set concerns HOP-92. The experiment in a line: Cytotoxicity against human HOP-92 cells assessed as cell growth inhibition. Format: functional, cell-based.
The next data set concerns TK-10. Kind of data set: Cytotoxicity against human TK-10 cells assessed as cell growth inhibition. Format: functional, cell-based.
A further data set concerns SW-620. The experiment in a line: Cytotoxicity against human SW620 cells assessed as cell growth inhibition. It is filed as functional, cell-based.
For a further data set, the system named is SK-MEL-28. Kind of data set: Cytotoxicity against human SK-MEL-28 cells assessed as cell growth inhibition. It is filed as functional, cell-based.
In another data set the test system is DU-145. Kind of data set: Cytotoxicity against human DU-145 cells assessed as cell growth inhibition. Format: functional, cell-based.
The subject of the next data set is NCI-H23. Kind of data set: Cytotoxicity against human NCI-H23 cells assessed as cell growth inhibition. It is filed as functional, cell-based.
Another data set concerns SN12C. The experiment in a line: Cytotoxicity against human SN12C cells assessed as cell growth inhibition. It is filed as functional, cell-based.
In another data set the test system is MDA-MB-231. The experiment in a line: Cytotoxicity against human MDA-MB-231 cells assessed as cell growth inhibition. Format: functional, cell-based.
In a further data set the test system is OVCAR-4. The experiment in a line: Cytotoxicity against human OVCAR-4 cells assessed as cell growth inhibition. It is filed as functional, cell-based.
Another data set relates to M14. The experiment in a line: Cytotoxicity against human M14 cells assessed as cell growth inhibition. Format: functional, cell-based.
A further data set concerns RPMI-8226. Kind of data set: Cytotoxicity against human RPMI-8226 cells assessed as cell growth inhibition. Format: functional, cell-based.
The subject of the next data set is UACC-257. Kind of data set: Cytotoxicity against human UACC-257 cells assessed as cell growth inhibition. Format: functional, cell-based.
The subject of a further data set is SK-MEL-2. Kind of data set: Cytotoxicity against human SK-MEL-2 cells assessed as cell growth inhibition. Format: functional, cell-based.
For the next data set, the system named is SNB-75. The experiment in a line: Cytotoxicity against human SNB-75 cells assessed as cell growth inhibition. Format: functional, cell-based.
The next data set relates to SNB-19. The experiment in a line: Cytotoxicity against human SNB-19 cells assessed as cell growth inhibition. It is filed as functional, cell-based.
For another data set, the system named is SF-539. The experiment in a line: Cytotoxicity against human SF-539 cells assessed as cell growth inhibition. It is filed as functional, cell-based.
In data set [2] the test system is HT-29. The experiment in a line: Cytotoxicity against human HT-29 cells assessed as cell growth inhibition. Format: functional, cell-based.
The next data set relates to CAKI-1. The experiment in a line: Cytotoxicity against human CAKI-1 cells assessed as cell growth inhibition. Format: functional, cell-based.
For a further data set, the system named is HCC 2998. Kind of data set: Cytotoxicity against human HCC 2998 cells assessed as cell growth inhibition. It is filed as functional, cell-based.
The subject of a further data set is UO-31. Kind of data set: Cytotoxicity against human UO-31 cells assessed as cell growth inhibition. It is filed as functional, cell-based.
The next data set has as its system RXF 393. The experiment in a line: Cytotoxicity against human RXF 393 cells assessed as cell growth inhibition. It is filed as functional, cell-based.
A further data set relates to ACHN. Kind of data set: Cytotoxicity against human ACHN cells assessed as cell growth inhibition. It is filed as functional, cell-based.
The next data set deals with OVCAR-5. Kind of data set: Cytotoxicity against human OVCAR-5 cells assessed as cell growth inhibition. It is filed as functional, cell-based.
For another data set, the system named is HL-60(TB). The experiment in a line: Cytotoxicity against human HL-60(TB) cells assessed as cell growth inhibition. Format: functional, cell-based.
In a further data set the test system is IGROV-1. Kind of data set: Cytotoxicity against human IGROV-1 cells assessed as cell growth inhibition. It is filed as functional, cell-based.
In another data set the test system is UACC-62. Kind of data set: Cytotoxicity against human UACC-62 cells assessed as cell growth inhibition. It is filed as functional, cell-based.
Another data set has as its system CCRF-CEM. The experiment in a line: Cytotoxicity against human CCRF-CEM cells assessed as cell growth inhibition. It is filed as functional, cell-based.
In another data set the test system is MDA-MB-435. Kind of data set: Cytotoxicity against human MDA-MB-435 cells assessed as cell growth inhibition. Format: functional, cell-based.
The subject of another data set is K562. The experiment in a line: Cytotoxicity against human K562 cells assessed as cell growth inhibition. It is filed as functional, cell-based.
For the next data set, the system named is A549. Kind of data set: Cytotoxicity against human A549 cells assessed as cell growth inhibition. Format: functional, cell-based.
Another data set has as its system KM12. Kind of data set: Cytotoxicity against human KM12 cells assessed as cell growth inhibition. Format: functional, cell-based.
Another data set has as its system T47D. Kind of data set: Cytotoxicity against human T47D cells assessed as cell growth inhibition. Format: functional, cell-based.
For the next data set, the system named is NCI-H460. Kind of data set: Cytotoxicity against human NCI-H460 cells assessed as cell growth inhibition. It is filed as functional, cell-based.
For another data set, the system named is PC-3. The experiment in a line: Cytotoxicity against human PC-3 cells assessed as cell growth inhibition. It is filed as functional, cell-based.
A short description of data set [3]: Cytotoxicity against human hTERT-HME1 cells assessed as cell growth inhibition. It is filed as toxicity, cell-based.
Data set [4] in a line: Cytotoxicity against human F180 cells assessed as cell growth inhibition. It is filed as toxicity, cell-based.
The test system of data set [5] is HT-29. The experiment in a line: Antiproliferative activity against human HT-29 cells assessed as reduction in cell viability. It is filed as functional, cell-based.

Turning to `O=C(Nc1ccc(NS(=O)(=O)c2ccccc2)cc1)C12CC3CC(CC(C3)C1)C2`, the “inhibition (INH)” value in [1] is reported as 97.88%.

As a reminder, the IC50 is the concentration needed to halve the response being measured. As for `O=c1[nH]cc(F)c(=O)[nH]1` [FLUOROURACIL], the IC50 in the data set on HCT-15 is 110 nM; with SF-268, 1620 nM; in the data set on BT-549, 10600 nM; in the data set on NCI/ADR-RES it was 310 nM; with Malme-3M it was 50 nM; in the data set with SK-MEL-5, 460 nM. The IC50 was 7270 nM in the data set with NCI-H522; 9770 nM in the data set on Hs-578T; 350 nM in the data set on MOLT-4; 150 nM in the data set on COLO 205; 54700 nM with NCI-H226; 70 nM in the data set with MCF7. The half-inhibitory concentration (IC50) in the data set with U-251 was 920 nM; with OVCAR-3, 10 nM; in the data set on 786-0, 720 nM; in the data set on SK-OV-3 it was 21800 nM; with HCT-116, 220 nM; in the data set on HOP-62, 390 nM. Also, the IC50 in the data set on OVCAR-8 was 1740 nM; in the data set with A498 it was 350 nM; in the data set with HOP-92, 77900 nM; with TK-10, 1120 nM; in the data set on SW-620, 920 nM; with SK-MEL-28 it was 1030 nM. Moreover, the half-maximal inhibitory concentration (IC50) with DU-145 was found to be 360 nM; in the data set with NCI-H23, 330 nM; with SN12C, 490 nM; in the data set with MDA-MB-231, 6600 nM; with OVCAR-4, 4430 nM; with M14, 980 nM. Moreover, the 50% inhibitory concentration (IC50) worked out at 40 nM in the data set on RPMI-8226; 3550 nM with UACC-257; 56700 nM in the data set with SK-MEL-2; 78700 nM in the data set on SNB-75; 3810 nM with SNB-19; 60 nM with SF-539. Besides, the half-inhibitory concentration (IC50) with HT-29 [2] is 170 nM; with CAKI-1, 70 nM; in the data set with HCC 2998, 50 nM; with UO-31, 1420 nM; with RXF 393 it was 2610 nM; in the data set with ACHN it was 270 nM. Further, the IC50 in the data set with OVCAR-5 was 10900 nM; in the data set on HL-60(TB), 2300 nM; with IGROV-1, 1220 nM; in the data set on UACC-62, 520 nM; in the data set on CCRF-CEM, 9970 nM; with MDA-MB-435 it was 70 nM. The 50% inhibitory concentration (IC50) in the data set with K562 is 3580 nM; in the data set with A549, 180 nM; in the data set on KM12, 210 nM; with T47D, 8120 nM; in the data set with NCI-H460, 50 nM; in the data set on PC-3 it was 2360 nM.

`O=C(n1ccc2cc(OS(=O)(=O)c3ccc(F)cc3)ccc21)C12CC3CC(CC(C3)C1)C2`: the “inhibition (INH)” value in data set [1] was determined as 86%.

Take `COc1cccc2c1C(=O)c1c(O)c3c(c(O)c1C2=O)C[C@@](O)(C(=O)CO)C[C@@H]3O[C@H]1C[C@H](N)[C@H](O)[C@H](C)O1` [DOXORUBICIN]: the IC50 in data set [3] was 770 nM; in [4], 140 nM.

In the case of `O=C(n1ccc2cc(OS(=O)(=O)c3ccccc3)ccc21)C12CC3CC(CC(C3)C1)C2`, the “inhibition (INH)” value in data set [1] is reported as 88%.

With `O=C(Nc1ccc(OS(=O)(=O)c2ccc(F)cc2)cc1)C1CCCCC1`, in the data set on HT-29 [5], the half-inhibitory concentration (IC50) was determined as 4730 nM.
